Data set [1] addresses T1, μ opioid receptor (MOR) (Mus musculus, UniProt P42866).
T1 construct: expressed in transfected cells; host or cells: CHO (mMOR-CHO), membrane preparation
In words: Competitive radioligand binding assay, MOR. The protocol:
(§1) The competition binding assay was performed using monoclonal mouse opioid receptors expressed in CHO cell lines (monoclonal human δ opioid receptor was used for the DOR assay).
(§2) The bound radioligand was separated using a Brandel harvester. Specific binding to the MOR, KOR, and DOR was calculated by subtracting the binding observed in the presence of 5 μM naltrexone, U50488, and SNC80, respectively, from the binding in their absence. Relative affinity values (IC50) were determined by fitting displacement binding inhibition data to a nonlinear regression model using GraphPad Prism 8.0 (GraphPad Software, San Diego, CA). The % inhibition was calculated using the formula: % inhibition = 100% - [(binding with the tested compound - nonspecific binding)/specific binding] × 100%. The IC50 values were converted to Ki values using the Cheng-Prusoff equation: Ki = IC50/ [1 + ([L*]/KD)], where [L*] is the concentration of the radioligand and KD is the KD of the radioligand.[68]

In data set [2] the target is T2, κ opioid receptor (KOR) (Mus musculus, UniProt P33534).
T2 construct: expressed in transfected cells; host or cells: CHO (mKOR-CHO), membrane preparation
In words: Competitive radioligand binding assay, KOR. To be noted: for Selectivity κ/μ: ratio of Ki values. As to the method:
as §1, §2

Data set [3] addresses T3, MOR (Mus musculus, UniProt P42866).
T3 construct: expressed in transfected cells; host or cells: CHO (MOR-CHO), membrane preparation
In words: MOR [35S]GTPγS functional assay. The data set is classed as biochemical. Particulars: for Emax: read-out: MOR [35S]GTPγS Binding %Emax of DAMGO, relative to 3 μM DAMGO, mean ± SEM. As to the method:
(§3) The [^35S]GTPγS functional assay was used to assess the efficacy of compounds at the MOR, KOR, and DOR. In this assay, 10 μg of MOR-CHO/KOR-CHO/DOR-CHO membrane protein was incubated in 500 μL of TME with 100 mM NaCl, 20 μM GDP, 0.1 nM [^35S]GTPγS, and varying concentrations of the compound for 1.5 h in a 30 °C water bath. Protein concentration was adjusted using the Bradford protein assay. […] After incubation, bound radioactivity was separated by filtration through GF/B glass fiber filters and measured by liquid scintillation counting. All assays were performed in duplicate and repeated at least three times. Net stimulated [35S]GTPγS binding was calculated as agonist-stimulated minus basal binding.

Data set [4] deals with Swiss Webster mice. As to the kind of experiment: Warm-water tail immersion assay, agonism (acute antinociception). To be noted: single dose of 10 mg/kg s.c., n = 6, vs 10 mg/kg morphine.
The target of data set [5] is T4, δ opioid receptor (DOR) (Homo sapiens, UniProt P41143).
T4 construct: expressed in transfected cells; host or cells: CHO (hDOR-CHO), membrane preparation
In words: Competitive radioligand binding assay, DOR. As to the method:
as §1, §2

The target in data set [6] is T5, KOR (Mus musculus, UniProt P33534).
T5 construct: expressed in transfected cells; host or cells: CHO (KOR-CHO), membrane preparation
In words: KOR [35S]GTPγS functional assay. Particulars: for Emax: relative to 3 μM U50488H, mean ± SEM, read-out: KOR [35S]GTPγS binding % Emax of U50488H. The data set is classed as biochemical. The protocol:
as §3

For data set [7], the target named is T6, DOR (Homo sapiens, UniProt P41143).
T6 construct: expressed in transfected cells; host or cells: CHO (DOR-CHO), membrane preparation
In words: DOR [35S]GTPγS functional assay. The data set is classed as biochemical. Particulars: for Emax: relative to 3 μM SNC80, mean ± SEM, read-out: DOR [35S]GTPγS binding % Emax of SNC80. The protocol: as §3

Data set [8] deals with Swiss Webster mice. In words: Warm-water tail immersion assay, antagonism of morphine-induced antinociception. To be noted: for AD50 (95% CL) for counteracting morphine-induced antinociception: mice, s.c., given 5 min before morphine; for Antagonism of morphine's antinociception, in words: single dose of 10 mg/kg s.c. in the presence of morphine (10 mg/kg), n = 6.
The target of data set [9] is T3, MOR. As to the kind of experiment: MOR calcium flux assay in Gαqi5-transfected mMOR-CHO cells. The data set is classed as cell-based. Particulars: for Agonistic activity in increasing intracellular calcium, in words: compared to full MOR agonist DAMGO.
Data set [10] has as its system morphine-pelleted mice. As to the kind of experiment: In vivo opioid withdrawal studies in morphine-pelleted mice. Further details: species or system mouse. To be noted: for Jumps, mean count / Paw tremors, mean count / Wet dog shake, mean count: 5 mg/kg s.c., counted over 20 min; for Precipitated withdrawal symptoms, in words: s.c. The protocol: Swiss Webster mice (six males per group, weighing 25–35 g and aged 6–8 weeks) were used. Following a previously established protocol,[20] a 75 mg morphine pellet was implanted subcutaneously into the back of each mouse, and they were allowed to recover in their home cages. Prior to testing, the mice were habituated for 30 min in an open-topped, clear Plexiglas observation chamber (26 × 26 × 26 cm^3) with lines marking the floor into quadrants. […]. Withdrawal symptoms began within 3 min of antagonist administration. Escape jumps, paw tremors, and wet dog shakes were recorded by counting their occurrences over a 20 min period for each mouse. Results are expressed as the mean ± SEM.

Data set [11] relates to GI-tract motility. Also noted: method as in PMID 22683223. To be noted: cited from earlier work.
In data set [12] the test system is Swiss Webster mice. Also noted: method as in PMID 35255685. To be noted: warm-water tail immersion; cited from earlier work.
Data set [13] has as its system Swiss Webster mice. Particulars: cited from earlier work; for %MPE in single dose antagonism assay: in the presence of morphine; for AD50 (95% CL) for counteracting morphine-induced antinociception: mice.

“Also recorded” adds a separate entry of the source. Structures can show the parent of a compound that is named as a salt. Where two headings read alike, the source gives them in different places.

In turn, `O=C(N[C@H]1CC[C@@]2(O)[C@H]3Cc4ccc(O)c5c4[C@@]2(CCN3CC2CC2)[C@H]1O5)c1ccns1` [Compound 1, 17-Cyclopropylmethyl-3,14β-dihydroxy-4,5α-epoxy-6α-(5′-isothiazolylcarboxamido)-morphinan hydrochloride] had a Ki in data set [1] of 0.51 ± 0.08 nM. For the same compound, in data set [2], the inhibitory constant (Ki) was 1.81 ± 0.18 nM and the “Selectivity κ/μ” value came out at 4. In addition, in data set [3], the concentration for a half-maximal effect (EC50) worked out at 4.93 ± 0.8 nM and the Emax came to 15.6 ± 1.11%. In data set [4], the “Antinociceptive effect (MPE) compared to morphine, in words” value is “significantly lower than that of morphine”. For the same compound, in data set [5], the Ki stood at 14.3 ± 0.66 nM. Moreover, the “Selectivity δ/μ” value in data set [5] (ratio of Ki values) worked out at 28.

`O=C(N[C@@H]1CC[C@@]2(O)[C@H]3Cc4ccc(O)c5c4[C@@]2(CCN3CC2CC2)[C@H]1O5)c1ccns1` [Compound 9, 17-Cyclopropylmethyl-3,14β-dihydroxy-4,5α-epoxy-6β-(5′-isothiazolylcarboxamido)-morphinan hydrochloride] gave a Ki in data set [1] of 0.32 ± 0.03 nM. Moreover, in [6], the midpoint of the response, the EC50, lay at 7.06 ± 0.18 nM and the Emax worked out at 49.9 ± 1.99%. Besides, in data set [2], affinity was put at a Ki of 1.22 ± 0.32 nM and the “Selectivity κ/μ” value is 4. Further, in data set [3], the midpoint of the response, the EC50, lay at 0.71 ± 0.14 nM and the maximal response (Emax) turned out to be 9.66 ± 1.37%. Further, in data set [7], it took 58.1 ± 10.3 nM to reach a half-maximal effect (EC50) and the maximum response (Emax) is 44.4 ± 4.15%. Moreover, in data set [8], the “AD50 (95% CL) for counteracting morphine-induced antinociception” value (“AD50 (95% CL)” below) is 4.77 (3.59–6.34) mg/kg and the “Antagonism of morphine's antinociception, in words” value is listed as “significantly antagonized”. Moreover, in data set [9], the concentration for half-maximal inhibition (IC50) was determined as 6.53 ± 2.28 nM and the “Agonistic activity in increasing intracellular calcium, in words” value is reported as “no apparent agonism; also recorded: none of them showed any significant agonistic activity”. Further, in data set [5], the inhibitory constant (Ki) is 67.8 ± 7.17 nM.

In data set [1], `O=C(N[C@@H]1CC[C@@]2(O)[C@H]3Cc4ccc(O)c5c4[C@@]2(CCN3CC2CC2)[C@H]1O5)c1nccs1` [Compound 14, 17-Cyclopropylmethyl-3,14β-dihydroxy-4,5α-epoxy-6β-(2′-thiazolylcarboxamido)-morphinan hydrochloride] registered a Ki of 0.3 ± 0.04 nM. In [6], the EC50 came out at 9.67 ± 1.81 nM and the Emax amounted to 39.8 ± 2.82%. In [2], the affinity corresponds to a Ki of 0.75 ± 0.08 nM and the “Selectivity κ/μ” value came to 2. Also, in data set [3], the concentration for a half-maximal effect (EC50) is 0.56 ± 0.2 nM and the maximal effect (Emax) is 6.06 ± 0.52%. For the same compound, in [7], the concentration for a half-maximal effect (EC50) was 44 ± 6.82 nM and the maximum response (Emax) was 25.9 ± 0.4%. Further, in data set [8], the “AD50 (95% CL)” value is on record as 0.23 (0.04–1.37) mg/kg and the “Antagonism of morphine's antinociception, in words” value is given as “significantly antagonized”. Further, in data set [10], the “Jumps, mean count” value amounted to 58.8; the “Paw tremors, mean count” value is 45.7; the “Wet dog shake, mean count” value is 17.7; the “Precipitated withdrawal symptoms, in words” value is “fewer wet dog shakes and paw tremors at all testing doses than 1 mg/kg NLX”. Besides, in data set [9], the IC50 was 12.4 ± 1.18 nM and the “Agonistic activity in increasing intracellular calcium, in words” value is “no apparent agonism; also recorded: none of them showed any significant agonistic activity”. The compound also yielded a Ki in [5] of 117 ± 23.6 nM.

As for `O=C(N[C@@H]1CC[C@@]2(O)[C@H]3Cc4ccc(O)c5c4[C@@]2(CCN3CC2CC2)[C@H]1O5)c1ccncc1` [NAP, 17-Cyclopropylmethyl-3,14β-Dihydroxy-4,5α-Epoxy-6β-[(4′-Pyridyl)Carboxamido]Morphinan], the “ED50 in gastrointestinal (GI)-tract motility assay” value in [11] is 8.8 µg/kg.

`O=C(N[C@H]1CC[C@@]2(O)[C@H]3Cc4ccc(O)c5c4[C@@]2(CCN3CC2CC2)[C@H]1O5)c1cccs1` [NAT, reference compound]: in data set [12], the “%MPE in single dose agonism assay” value is 15.2 ± 8.8%. Also, in [13], the “%MPE in single dose antagonism assay” value is given as 2.1 ± 1.7% and the “AD50 (95% CL)” value is recorded as 0.42 (0.21–0.82) mg/kg. Besides, in data set [10], the “Jumps, mean count” value came to 45.8; the “Paw tremors, mean count” value is 29.2; the “Wet dog shake, mean count” value amounted to 14.5; the “Precipitated withdrawal symptoms, in words” value was “Significant withdrawal symptoms”. Besides, in data set [9], the half-inhibitory concentration (IC50) was found to be 42.1 ± 4.51 nM.

As to `C=CCN1CC[C@]23c4c5ccc(O)c4O[C@H]2C(=O)CC[C@@]3(O)[C@H]1C5` [NLX, naloxone], in [13], the “%MPE in single dose antagonism assay” value was 2.9 ± 1.3% and the “AD50 (95% CL)” value is 0.05 (0.03–0.09) mg/kg. Further, the “Precipitated withdrawal symptoms, in words” value in data set [10] is “precipitated significant withdrawal symptoms”.
